In US7943583B2, “2-O-(β-D-glucopyranosyl) ascorbic acid, process for its production, and foods cosmetics containing compositions comprising it” (Suntory Holdings Limited, priority 2001, dated 2011):
Read-outs that look alike come from different tables or passages of the source.

Assays:
[1] = rats; cited from earlier work
[2] = system: normal human dermal fibroblast (NHDF) cells; assay: Population doubling level (PDL) of normal human dermal fibroblasts; type: cell-based; conditions: 100 μM
Experimental: Normal human dermal fibroblast (NHDF) cells were plated onto a 100 mm diameter dish at a cell density of 370,000. After 16 hours of culture in DMEM supplied with 10% FBS, the medium was replaced by DMEM fortified with 10% FBS and supplied with 40% of a domestic-conditioned medium containing 100 μM of 2-O-(β-D-glucopyranosyl)ascorbic acid. The cultivation was continued for 46-188 hours until cells reached a near confluent state. The domestic-conditioned medium was prepared by separately culturing NHDF cells to the state of near confluency, which was further cultivated in a serum-free medium for 24 hours, and collecting the culture supernatant, which was stored in a refrigerator and used within 3 days. In connection with the above 46-188 hours of cultivation, the medium was changed every 3 days with fresh DMEM fortified with 10% FBS and supplied with 40% of the domestic-conditioned medium containing 100 μM of 2-O-(β-D-glucopyranosyl)ascorbic acid. When medium change was made, the cell number in the old culture medium was counted and used in the PDL assessment. The number of cells adhering onto the plate was counted by Coulter counter. PDL value at the start of culture was taken as 0, and PDL values thereafter were calculated by the equation: PDL=log2(recovered cell number/seeded cell number). […]

[3] = system: normal human dermal fibroblasts (NHDF); assay: Collagen synthesis by normal human dermal fibroblasts ([3H]proline incorporation, collagenase-digestible); type: cell-based; conditions: 100 μM, 48 hours, compared to 2-O-(α-D-glucopyranosyl)ascorbic acid or ascorbic acid
Experimental: Normal human dermal fibroblast cells (NHDF) were plated onto a 100 mm diameter dish at a cell count of 370,000. After 16 hours of culture, there was added 100 μM of 2-O-(β-D-glucopyranosyl)ascorbic acid dissolved in DMEM medium containing 10% FBS and 40% of 24-hour serum-free NHDF culture solution. After another hour, 0.12 mL (120 μCi) of L-[2,3-^3H]proline was added and culturing was continued for 48 hours. The medium was removed after culturing, and the cell sheet was rinsed 4 times with PBS. The cells were then treated with trypsin, lysed with an alkali, and then neutralized to obtain the intracellular protein. The fraction obtained by digesting this protein with Clostridium collagenase was measured in terms of radioactivity with a liquid scintillation counter using Scintisol EX-H. The intracellular protein fraction not treated with collagenase was also measured in terms of radioactivity using a liquid scintillation counter. The difference in radioactivities was calculated and recorded as the collagen synthesizing activity. For comparison, 2-O-(α-D-glucopyranosyl)ascorbic acid and ascorbic acid were examined in a similar manner, and the results are also shown in FIG. 7.

[4] = system: human skin epidermal keratinocytes (HaCaT); assay: Intracellular ascorbic acid concentration in human skin epidermal keratinocytes (HPLC); type: cell-based; conditions: 100 μM, 3-24 hours after addition, compared with 2-O-(α-D-glucopyranosyl)ascorbic acid and ascorbic acid
Experimental: Human skin epidermal keratinocyte cells HaCaT were plated onto a 100 mm diameter dish at a cell count of 370,000. After 16 hours of culturing, there was added 100 μM of 2-O-(β-D-glucopyranosyl)ascorbic acid dissolved in DMEM containing 10% FBS and 40% of 24-hour serum-free HaCaT culture solution. The medium was removed 3-24 hours after the addition, rinsing was performed twice with ice-cooled PBS, and the cell sheet was treated with trypsin to obtain the separated cells. These were suspended in PBS containing 50 μM dithiothreitol (DTT) and rinsed 3 times by centrifugation. The cells received freeze-thawing twice were crushed with a Potter-type teflon homogenizer for 30 sec on the ice. The cell homogenate was centrifuged at 5° C., and supernate thus separated was stored on the ice. The supernatant was subjected to treatment with Molcut (product of Nihon Millipore Co., Ltd.; High-pressure ultrafiltration unit, nominal molecular weight limit (NMWL): 10,000, polyethersulfone membrane), and the amount of intracellular ascorbic acid was analyzed by high performance liquid chromatography (AS-8020 System by Toso Co., Ltd., column: Shodex ODSpak (4.6×150 mm, product of Showa Denko Co., Ltd.), mobile phase: 0.1 M KH2PO4—H3PO4 (pH 2.35)-0.1 mM EDTA-2 Na, flow rate: 1.5 mL/min) using a coulometric electrochemical detector (ESA Co., Bedford, Mass., 200 mV). […]

[5] = system: NHDF cells; assay: Reduction speed of telomere lengths (TRF Southern blot) in NHDF cells; type: cell-based, human
Experimental: The TRFs were separated by electrophoresis and the length of the telomere DNA was quantified with a labeled probe specifically binding to telomere. Details of the method used in the study is described in Life Sciences, Vol. 63, No. 11, 935-948 (1998).
The fibroblast cells (NHDF) from human skin epidermis were dispersed by treatment with trypsin, added into a 1.5 ml tube at 10^6/tube, centrifuged for 2 min. at 1,200 rpm at 4° C., and the supernatant was discarded. The pellet was washed two times with 1 ml RNase free PBS(−), the supernatant was removed as sufficiently as possible, and the cells were stored at −80° C. The frozen sample was restored to ambient temperature, genomic DNA was extracted by use of IsoQuick Nucleic Acid Extraction Kit (ORCA Research Inc.). The extracted DNA was dissolved in 10 mM Tris-HCl, 1 mM EDTA, pH8.0 to be stored at 4° C. The DNA content was determined by the fluorescent reader (Cytofluor 2350, Millipore Corporation) with the DNA binding reagent Hoechist 33258, and TRF was prepared by restricted digestion with HinfI treatment. The restricted digestion was carried out as follows. There were added into a 1.5 ml tube, 2 μl of 10× H buffer (TaKaRa, Kyoto), the solution of extracted genomic DNA (2 μg), sterilized water to make up 19 μl, and finally 1 μl of HinfI (6 U/μl, TaKaRa, Kyoto). […]

[6] = system: human skin epidermal keratinocytes (HaCaT); assay: Protecting effect against cell death of HaCaT induced by UVB irradiation (WST-1 viable cell count); type: cell-based; conditions: compared to ascorbic acid or 2-O-(α-D-glucopyranosyl)ascorbic acid at the same concentration; added at 20-100 μM 2 h before UVB 35 mJ/cm^2
Experimental: The human skin epidermal keratinocyte line HaCaT (a cell line provided by Professor Fusenig of Heidelberg University) was plated on a 24-well plate at 10,000 cells/well with Dulbecco's modified Eagle medium (DMEM) containing 10% fetal bovine serum (FBS) and after 18 hours, the cells were irradiated with UVB (maximum wavelength: 312 nm) at 35 millijoules/square centimeter (mJ/cm^2). Two hours before irradiation, 2-O-(β-D-glucopyranosyl)ascorbic acid was added at 20-100 μM and removed with rinsing just before irradiation. The irradiation was performed in PBS in the absence of chemical agents, after which culturing was continued in DMEM containing 10% FBS, and the viable cell count was determined 24 hours after irradiation by measuring the mitochondrial dehydrogenase activity using 2-(4-iodophenyl)-3-(4-nitrophenyl)-5-(2,4-disulfophenyl)-2H-tetrazolium monosodium salt (WST-1). For comparison, 2-O-(α-D-glucopyranosyl)ascorbic acid and ascorbic acid were examined in a similar manner, and the results are also shown in FIG. 5.

[7] = Intestinal absorption in rat: portal vein plasma concentrations after oral administration; type: in vivo
Experimental: A solution of 2-O-(β-D-glucopyranosyl)ascorbic acid in Milli-Q Ultrapure Water (Millipore Corporation) (100 mg/4 mL) was orally administered at a dose of 100 mg/kg by using a feeding tube to overnight-starved and awake 10-week-old male Wistar rats (n=3) purchased from Nihon Charles River Co. After 0, 0.5, 2 and 4 hours, heparinized blood samples were collected from the portal vein and the plasma from each sample was separated by centrifugation (6000×g, 10 min). After addition of an equivalent of ice-cooled 10% metaphosphoric acid (containing 40 mM deferoxamine mesylate), the mixture was centrifuged (10,000×g, 10 min) to obtain protein-removed portal vein plasma, of which the unconverted 2-O-(β-D-glucopyranosyl)ascorbic acid and ascorbic acid concentrations were measured by high performance liquid chromatography (LC-10Ai System by Shimadzu Co., Ltd., Column: Inertsil ODS-3 (GL Science Co., Ltd., 3.0×150 mm, 5 μm), mobile phase: 15% MeOH-17 mM KH2PO4/H3PO4 (pH 3.5)-5 mM tetra-n-amylammonium bromide, flow rate: 0.3 mL/min, column temperature: 35° C., detection wavelength: 254 nm). The unconverted 2-O-(β-D-glucopyranosyl)ascorbic acid and the metabolite (ascorbic acid) were found present in maximum amounts 30 minutes after administration.

Row | SMILES | unconverted form in the blood upon oral ingestion [1] | PDL of NHDF greater than in the absence of ascorbic acid derivative (PDL 20.1) [2] | collagen synthesis activity [3] | intracellular ascorbic acid concentration [4] | average reduction speed of telomere length ([5]; 225 bp/PDL in the absence of any ascorbic acid derivative) | shortening of the speed of the telomere length to reduce to the critical length ([5]; versus no ascorbic acid derivative) | effect of preventing cell death of HaCaT induced by UVB irradiation [6] | time of maximum amount of unconverted 2-O-(β-D-glucopyranosyl)ascorbic acid in portal vein plasma ([7]; Wistar rats, oral 100 mg/kg) | unconverted form in the blood upon oral ingestion ([7]; rats, oral)
1 | O=C1O[C@H]([C@@H](O)CO)C(O)=C1O[C@H]1O[C@H](CO)[C@@H](O)[C@H](O)[C@H]1O [2-O-(α-D-glucopyranosyl)ascorbic acid] | no detection of the unconverted form in the blood |  |  |  |  |  |  |  | 
2 | O=C1O[C@H]([C@@H](O)CO)C(O)=C1O[C@@H]1O[C@H](CO)[C@@H](O)[C@H](O)[C@H]1O [2-O-(β-D-glucopyranosyl)ascorbic acid] |  | 2.62 times | increased activity | maintained at a higher concentration for the longest time | 94 bp/PDL | approximately 42% | stronger effect of preventing cell death | 30 min | detected in the blood
